For assay [1], the target named is T1, umami taste receptor (T1R1 and T1R3 subunits, Gα15) (Homo sapiens, UniProt Q7RTX0+Q7RTX1, C757R).
T1 construct: expressed in transfected cells; host or cells: HEK293T (ATCC CRL-11268)
T1 sequence (Q7RTX1 21-841): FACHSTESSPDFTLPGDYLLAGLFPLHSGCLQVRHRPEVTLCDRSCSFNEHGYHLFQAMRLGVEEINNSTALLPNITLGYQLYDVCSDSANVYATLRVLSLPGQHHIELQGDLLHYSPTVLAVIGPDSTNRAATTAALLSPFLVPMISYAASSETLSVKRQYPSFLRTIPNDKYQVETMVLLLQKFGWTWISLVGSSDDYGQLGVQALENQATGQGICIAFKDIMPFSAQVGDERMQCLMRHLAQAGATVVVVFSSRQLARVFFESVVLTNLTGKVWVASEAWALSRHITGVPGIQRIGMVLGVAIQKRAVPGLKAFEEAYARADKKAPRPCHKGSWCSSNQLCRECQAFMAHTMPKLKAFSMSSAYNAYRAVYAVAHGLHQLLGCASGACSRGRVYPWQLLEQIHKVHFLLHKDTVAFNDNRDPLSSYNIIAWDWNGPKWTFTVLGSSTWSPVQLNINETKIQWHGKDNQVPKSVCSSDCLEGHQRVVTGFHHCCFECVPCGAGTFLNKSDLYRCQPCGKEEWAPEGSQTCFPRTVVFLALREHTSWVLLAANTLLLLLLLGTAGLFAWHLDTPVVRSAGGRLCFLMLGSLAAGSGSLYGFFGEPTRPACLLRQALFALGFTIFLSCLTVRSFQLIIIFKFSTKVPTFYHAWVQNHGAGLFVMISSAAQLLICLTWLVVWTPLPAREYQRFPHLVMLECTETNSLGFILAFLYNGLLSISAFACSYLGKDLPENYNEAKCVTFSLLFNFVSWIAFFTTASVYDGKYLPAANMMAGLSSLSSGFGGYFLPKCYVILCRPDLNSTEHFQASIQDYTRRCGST
T1 sequence (Q7RTX0 21-852 C757R): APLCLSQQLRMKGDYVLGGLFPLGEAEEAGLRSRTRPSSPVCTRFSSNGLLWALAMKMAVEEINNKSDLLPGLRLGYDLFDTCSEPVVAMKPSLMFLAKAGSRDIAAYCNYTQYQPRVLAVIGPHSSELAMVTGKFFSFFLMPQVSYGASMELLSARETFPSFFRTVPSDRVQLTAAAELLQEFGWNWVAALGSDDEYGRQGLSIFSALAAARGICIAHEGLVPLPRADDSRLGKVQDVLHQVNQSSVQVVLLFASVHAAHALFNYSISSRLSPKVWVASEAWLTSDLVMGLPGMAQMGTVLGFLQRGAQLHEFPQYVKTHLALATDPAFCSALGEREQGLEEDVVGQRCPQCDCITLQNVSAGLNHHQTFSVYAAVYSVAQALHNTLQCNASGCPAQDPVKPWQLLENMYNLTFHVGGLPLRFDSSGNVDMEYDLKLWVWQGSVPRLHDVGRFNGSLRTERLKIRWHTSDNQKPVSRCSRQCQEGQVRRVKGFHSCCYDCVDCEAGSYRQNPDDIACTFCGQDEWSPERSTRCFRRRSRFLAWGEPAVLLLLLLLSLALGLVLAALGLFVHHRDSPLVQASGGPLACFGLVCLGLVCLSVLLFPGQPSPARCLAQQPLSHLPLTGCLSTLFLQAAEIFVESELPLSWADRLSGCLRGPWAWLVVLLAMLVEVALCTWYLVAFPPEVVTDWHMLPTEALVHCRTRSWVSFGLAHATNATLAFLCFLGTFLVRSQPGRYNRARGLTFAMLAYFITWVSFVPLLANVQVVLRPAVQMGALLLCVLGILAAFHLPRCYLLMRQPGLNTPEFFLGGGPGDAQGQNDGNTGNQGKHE
Kind of assay: umami taste receptor-expressing cell-based assay. To be noted: FIGS. 9-12. The source says:
To identify a taste receptor modulator (e.g., umami taste receptor modulator or sweet taste receptor modulator), one exposes a cell or cell line of the invention to a test compound under conditions in which the taste receptor (e.g., umami taste receptor or sweet taste receptor) would be expected to be functional and then detects a statistically significant change (e.g., p<0.05) in taste receptor activity (e.g., umami taste receptor activity or sweet taste receptor activity) compared to a suitable control, e.g., cells that are not exposed to the test compound. Positive and/or negative controls using known agonists or antagonists and/or cells expressing different combinations of taste receptor subunits (e.g., umami taste receptor subunits or sweet taste receptor subunits) (and optionally a G protein) may also be used. In some embodiments, the taste receptor activity (e.g., umami taste receptor activity or sweet taste receptor activity) to be detected and/or measured is calcium release from the endoplasmic reticulum as a result of the down stream signaling events following taste receptor activation (e.g., umami taste receptor activation or sweet taste receptor activation). One of ordinary skill in the art would understand that various assay parameters may be optimized, e.g., signal to noise ratio.

For assay [2], the target named is T2, sweet taste receptor (T1R2/T1R3) (Homo sapiens, UniProt Q7RTX0+Q8TE23, C757R/I191V/I486V/R317G).
T2 construct: expressed in transfected cells; host or cells: HEK293T (ATCC CRL-11268)
T2 sequence (Q8TE23 20-839 I191V/R317G/I486V): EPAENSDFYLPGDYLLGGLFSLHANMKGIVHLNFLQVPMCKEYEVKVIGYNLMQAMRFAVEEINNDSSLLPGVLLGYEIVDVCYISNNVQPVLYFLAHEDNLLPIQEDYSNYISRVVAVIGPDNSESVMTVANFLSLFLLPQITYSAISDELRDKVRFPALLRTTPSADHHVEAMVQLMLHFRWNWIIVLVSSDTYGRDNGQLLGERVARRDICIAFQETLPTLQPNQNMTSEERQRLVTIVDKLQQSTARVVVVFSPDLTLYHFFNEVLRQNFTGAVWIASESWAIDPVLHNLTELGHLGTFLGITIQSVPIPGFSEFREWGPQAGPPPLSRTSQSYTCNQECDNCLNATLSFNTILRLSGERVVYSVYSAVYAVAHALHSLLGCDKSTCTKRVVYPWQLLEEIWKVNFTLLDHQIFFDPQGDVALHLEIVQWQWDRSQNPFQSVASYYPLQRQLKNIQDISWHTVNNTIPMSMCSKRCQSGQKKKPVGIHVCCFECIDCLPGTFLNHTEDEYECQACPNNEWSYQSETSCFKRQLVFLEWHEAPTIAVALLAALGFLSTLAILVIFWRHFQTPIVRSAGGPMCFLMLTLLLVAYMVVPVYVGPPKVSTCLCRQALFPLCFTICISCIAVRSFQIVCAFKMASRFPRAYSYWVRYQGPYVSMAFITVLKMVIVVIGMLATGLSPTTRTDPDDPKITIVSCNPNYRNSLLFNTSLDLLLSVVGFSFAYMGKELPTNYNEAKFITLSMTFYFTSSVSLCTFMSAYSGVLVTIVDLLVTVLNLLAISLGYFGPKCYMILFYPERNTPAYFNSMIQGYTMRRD
T2 sequence (Q7RTX0 21-852 C757R): T1 sequence (Q7RTX0 21-852 C757R)
Put plainly: Sweet cell-based calcium flux assay, HEK293T cells expressing T1R2, T1R3 and mouse Gα15. To be noted: FIG. 20; high density, coated plates, low glucose media, serum deprivation. On the technique in general: Calcium assays in cells follow changes in intracellular calcium, usually with a dye or a luminescent sensor.
Excerpt: Plates are then loaded on a high throughput plate reader (Hamamatsu FDSS). […] Calcium flux is detected for 90 seconds.

SMILES strings stand for the structures.

Take `N[C@@H](CCC(=O)O)C(=O)[O-].[Na+]` [MSG, monosodium glutamate]: in assay [1], the “response of umami taste receptor cells and cell lines to known classes of umami compounds” value is on record as “respond”. In addition, in assay [2], the “response of cells grown in the "Final" growth conditions” value was “not”.

The values above are taken from patent US20170052170A1, “NOVEL CELL LINES AND METHODS” (priority 2009, published 2017).
